Measurements taken from ChEMBL document CHEMBL3399980, “Synthesis and biological evaluation of novel selective androgen receptor modulators (SARMs). Part I” (Bioorg Med Chem, 2015).

What was measured:
[1] = target: T1, Androgen receptor (Homo sapiens, UniProt P10275); experiment: Displacement of [3H]mibolerone from androgen receptor (unknown origin) after 3 hrs
T1 sequence (P10275 whole entry): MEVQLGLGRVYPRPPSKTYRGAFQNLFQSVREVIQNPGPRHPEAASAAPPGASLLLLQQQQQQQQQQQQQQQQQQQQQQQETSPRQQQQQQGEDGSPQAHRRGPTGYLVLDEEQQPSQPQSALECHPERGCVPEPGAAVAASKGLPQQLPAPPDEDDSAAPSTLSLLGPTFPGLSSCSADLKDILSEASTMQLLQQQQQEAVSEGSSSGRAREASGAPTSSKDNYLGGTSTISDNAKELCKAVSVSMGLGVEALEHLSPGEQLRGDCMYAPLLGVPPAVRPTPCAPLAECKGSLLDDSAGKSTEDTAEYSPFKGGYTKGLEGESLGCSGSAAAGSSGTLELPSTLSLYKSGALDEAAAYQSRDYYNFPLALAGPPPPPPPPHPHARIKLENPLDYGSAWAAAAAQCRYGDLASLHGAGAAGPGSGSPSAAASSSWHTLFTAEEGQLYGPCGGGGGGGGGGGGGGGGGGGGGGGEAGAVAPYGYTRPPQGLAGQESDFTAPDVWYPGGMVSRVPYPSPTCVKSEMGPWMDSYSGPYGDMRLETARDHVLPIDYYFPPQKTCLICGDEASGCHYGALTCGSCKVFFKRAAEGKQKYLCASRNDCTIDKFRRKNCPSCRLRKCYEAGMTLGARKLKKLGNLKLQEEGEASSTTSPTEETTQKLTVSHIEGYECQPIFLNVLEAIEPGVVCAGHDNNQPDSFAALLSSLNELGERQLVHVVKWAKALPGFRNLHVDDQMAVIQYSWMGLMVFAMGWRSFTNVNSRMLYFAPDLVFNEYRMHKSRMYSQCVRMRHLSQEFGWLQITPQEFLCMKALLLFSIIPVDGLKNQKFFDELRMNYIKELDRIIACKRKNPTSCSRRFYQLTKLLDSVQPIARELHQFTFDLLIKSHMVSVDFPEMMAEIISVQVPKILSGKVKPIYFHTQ

[2] = target: T1, Androgen receptor; experiment: Modulation of androgen receptor (unknown origin) expressed in Cos7 cells assessed as luciferase activity after 24 hrs; type: cell-based, COS-7
[3] = system: Rattus norvegicus; experiment: Toxicity in male CD(SD)IGS rat assessed as effect on prostate weight at 1.5 mg/kg, po bid for 4 days by Hershberger assay; type: organism-based, Prostate gland; design: dose 1.5 mg/kg, route oral; conditions: in vivo, 96 h
[4] = system: Rattus norvegicus; experiment: Toxicity in male CD(SD)IGS rat assessed as effect on seminal vesicle weight at 1.5 mg/kg, po bid for 4 days by Hershberger assay; type: organism-based; design: dose 1.5 mg/kg, route oral; conditions: in vivo, 96 h
[5] = system: Brain; experiment: Drug uptake in male Sprague-Dawley rat brain at 5 mg/kg, po; type: ADME, organism-based; design: dose 5 mg/kg, route oral; conditions: in vivo
[6] = system: Plasma; experiment: Drug uptake in male Sprague-Dawley rat plasma at 5 mg/kg, po; type: ADME, organism-based; design: dose 5 mg/kg, route oral; conditions: in vivo
[7] = system: Prostate gland; experiment: Drug uptake in male Sprague-Dawley rat prostate at 5 mg/kg, po; type: ADME, organism-based; design: dose 5 mg/kg, route oral; conditions: in vivo
[8] = Drug uptake in male Sprague-Dawley rat levator ani muscle at 5 mg/kg, po; type: ADME, organism-based; design: dose 5 mg/kg, route oral; conditions: in vivo
[9] = system: Rattus norvegicus; experiment: Induction of sexual behavior in castrated male CD(SD)IGS rat assessed as pseudopregnancy rate in female rat at 2.5 mg/kg, po bid measured on day 21 after first treatment (reference value: 0%); type: functional
[10] = system: Rattus norvegicus; experiment: Induction of sexual behavior in castrated male CD(SD)IGS rat assessed as pseudopregnancy rate in female rat at 3.5 mg/kg, po bid measured on day 21 after first treatment (reference value: 0%); type: functional
[11] = system: Rattus norvegicus; experiment: Induction of sexual behavior in castrated male CD(SD)IGS rat assessed as pseudopregnancy rate in female rat at 5 mg/kg, po bid measured on day 21 after first treatment (reference value: 0%); type: functional
[12] = system: Rattus norvegicus; experiment: Induction of levator ani muscle weight in male CD(SD)IGS rat at 1.5 mg/kg, po bid for 4 days by Hershberger assay; type: functional
[13] = system: Rattus norvegicus; experiment: Induction of sexual behavior in castrated male CD(SD)IGS rat assessed as pseudopregnancy rate in female rat at 0.5 mg/kg, po bid measured on day 21 after first treatment (reference value: 0%); type: functional
[14] = system: Rattus norvegicus; experiment: Induction of sexual behavior in castrated male CD(SD)IGS rat assessed as pseudopregnancy rate in female rat at 1.5 mg/kg, po bid measured on day 21 after first treatment (reference value: 0%); type: functional

Row | SMILES | IC50 [1] [nM] | EC50 [2] [nM] | further results
1 | O=C(O)c1ccc(N2CCCC2)c2ccccc12 | > 10000 |  | 
2 | CC[C@H]1CCCN1c1ccc(C#N)c2ccccc12 | 1.1 | 0.24 | 
3 | O=[N+]([O-])c1ccc(N2CCCC2)c2ccccc12 | 2.5 | 41 | 
4 | C[C@@H]1CCCN1c1ccc(C#N)c2ccccc12 | 20 | > 1000 | 
5 | C[C@H]1[C@@H](C(C)(C)O)CCN1c1ccc(C#N)c2ccccc12 | 1.4 | 45 | Activity [3]: Non-toxic; Activity [4]: Non-toxic; Drug uptake [5]: Active; Drug uptake [6]: Active; Drug uptake [7]: Active; Drug uptake [8]: Active; Activity [9]: 57%; Activity [10]: 57%; Activity [11]: 50%
6 | C[C@H]1[C@@H](CO)CCN1c1ccc(C#N)c2ccccc12 | 4.1 | 1.2 | 
7 | C[C@H]1[C@@H](O)CCN1c1ccc(C#N)c2ccccc12 | 2.2 | 0.25 | Activity [12]: 150%; Activity [3]: Non-toxic; Activity [4]: Non-toxic; Activity [13]: 44%; Activity [14]: 70%; Activity [11]: 80%
8 | C[C@H]1[C@H](O)CCN1c1ccc(C#N)c2ccccc12 | 2.4 | 0.32 | Activity [12]: 150%; Activity [3]: Non-toxic; Activity [4]: Non-toxic; Activity [13]: 38%; Activity [14]: 67%; Activity [11]: 67%
9 | N#Cc1ccc(N2CCC[C@@H]2C(N)=O)c2ccccc12 | 34 | 21 | 
10 | C[C@H]1C(=O)CCN1c1ccc(C#N)c2ccccc12 | 37 | 2.2 | 
11 | CC(C)[C@H]1CCCN1c1ccc(C#N)c2ccccc12 | 1.4 | 2 | 
12 | CC1(C)CCCN1c1ccc(C#N)c2ccccc12 | 7 | 21 | 
13 | COC(=O)[C@H]1CCN(c2ccc(C#N)c3ccccc23)[C@H]1C | 7.5 | > 1000 | 
14 | N#Cc1ccc(N2CCC[C@@H]2C#N)c2ccccc12 | 1 | 160 | 
15 | C[C@H]1CCCN1c1ccc(C#N)c2ccccc12 | 0.84 | 0.19 | 
16 | N#Cc1ccc(N2CCCC2)c2ccccc12 | 2.5 | 2.5 | 
